Results reported in patent publication US7314858B2, “Retrocyclins: antiviral and antimicrobial peptides” (priority 2001, dated 2008).
“Also recorded” adds a separate entry of the source.

Tests used:
[1] = test system: HIV-1 strain JR-CSF; assay: HIV-1 JR-CSF infection of CD4+ PBMC, p24 antigen ELISA; type: cell-based; conditions: JR-CSF (R5), peptide 10-20 μg/ml
Description: FIG. 5A-C. Anti-HIV-1 activity of retrocyclin. Two strains of HIV-1 and two types of human target cells were used. The IIIB strain is T-cell tropic (X4) and utilizes the CXCR4 co-receptor for entry; the JR-CSF strain is M-tropic (R5) and uses CCR5 for entry. PBMC signifies CD4^+-selected peripheral blood mononuclear cells. […] (A) Two concentrations of retrocyclin (2 μg/ml, 20 μg/ml), 20 μg/ml of the Rhesus circular defensin “RTD-1”, and 20 μg/ml of a horseshoe crab-derived peptide “T140”, reported to only prevent X4 infections, were tested in antiviral assays of against strain IIIB in H9 cells (n=2-6 per peptide; error bars indicate SEM). (B) To confirm our results with primary human cells, similar assays were performed utilizing IIIB virus and CD4^+ PBMC or (C) JR-CSF virus and CD4^+ PBMC. Peptides were not cytotoxic at indicated concentrations, measured by trypan blue exclusion. Average of duplicate experiments are reported for studies with PBMCs. Assay sensitivity=10 pg/ml.
(§1) Either HIV-1-permissive H9 cells were used as targets, or primary CD4^+ lymphocytes from HIV-1-seronegative donors generated from freshly purified peripheral blood mononuclear cells (PBMC) stimulated with a CD3-CD8 bispecific monoclonal antibody. After approximately 7 days, when 98% of these cells co-expressed CD3 and CD4, they were infected with HIV-1 with or without retrocyclin or other test peptide. These cells were maintained in RPMI containing 10% FCS supplemented with 2 mM glutamine, 100 U of penicillin/ml, 10 μg of streptomycin/ml, and 50 U of interleukin 2/ml (R10-50 media).
The p24 assay results shown in FIG. 9 are on a logarithmic scale. A horizontal reference line that passes through 100 on the ordinate scale corresponds to […] of p24 antigen. Results from 3 experiments (each performed with PBMC from a different donor) are shown.

[2] = test system: HIV-1 strain IIIB; assay: HIV-1 IIIB infection of CD4+ PBMC, p24 antigen ELISA; type: cell-based; conditions: CD4+ PBMC, IIIB (X4), peptide 10-20 μg/ml
Description: FIG. 5A-C. Anti-HIV-1 activity of retrocyclin. Two strains of HIV-1 and two types of human target cells were used. The IIIB strain is T-cell tropic (X4) and utilizes the CXCR4 co-receptor for entry; the JR-CSF strain is M-tropic (R5) and uses CCR5 for entry. PBMC signifies CD4^+-selected peripheral blood mononuclear cells. […] (A) Two concentrations of retrocyclin (2 μg/ml, 20 μg/ml), 20 μg/ml of the Rhesus circular defensin “RTD-1”, and 20 μg/ml of a horseshoe crab-derived peptide “T140”, reported to only prevent X4 infections, were tested in antiviral assays of against strain IIIB in H9 cells (n=2-6 per peptide; error bars indicate SEM). (B) To confirm our results with primary human cells, similar assays were performed utilizing IIIB virus and CD4^+ PBMC or (C) JR-CSF virus and CD4^+ PBMC. […] Average of duplicate experiments are reported for studies with PBMCs. Assay sensitivity=10 pg/ml.
as §1, with “After approximately 7 days, when 98% of these cells co-expressed CD3 and CD4, they were infected with HIV-1 with or without retrocyclin or other test peptide.” left out
Examining the effect of adding retrocyclin at various times pre- and post-HIV-1 infection. […] Primary CD4^+ PBMC were incubated with HIV-IIIB (FIG. 6) or HIV-JR-CSF for 3 hours in the presence or absence of 20 μg/ml retrocyclin. The cells were subsequently washed in media, and incubated an additional 9 days. Retrocyclin (20 μg/ml) was added back to some of the cultures at time points specified in FIG. 6 and infection was monitored by p24 ELISA as previously described. […]

[3] = test system: HSV-2; assay: HSV inactivation microplate assay on ME-180 cells (MTT); type: cell-based; conditions: 2-50 μg/ml, 2 hrs with virus, 72 hrs culture
Description: FIG. 14. Inactivation of HSV-1 and HSV-2 by retrocyclin and RC-101. Retrocyclin (left panel) and RC-101 (right panel) at the indicated concentrations were incubated with herpes simplex virus, type 1 (HSV-1) or HSV-2 for 2 hrs and then added to ME-180 cell monolayers. Cells were incubated at 37° C. for 72 hrs, and cytotoxicity was measured with an MTT kit.
Some retrocyclins are slightly active against herpes simplex virus (HSV). To determine if the activity of retrocyclin against HIV-1 was specific or representative of a more global antiviral effect, it was tested its ability to prevent HSV infection in vitro. A quantitative microplate assay was used to screen retrocyclin and retrocyclin-congeners for their ability to inactivate HSV type 1 (HSV-1) and HSV-2. The assay utilized small amounts of peptide and simultaneously evaluated for peptide-induced cytotoxicity. In brief, final peptide concentrations of 2-50 μg/ml were incubated with virus stocks for 2 hrs and added directly to ME-180 human cervical carcinoma cells. Cultures were incubated at 37° C. for 72 hrs and cytotoxicity was measured using a 3-(4,5-dimethylthiazon-2-yl)-2,5-diphenyltetrazolium bromide (MTT) cell proliferation kit (Boehringer-Mannheim, Germany). Calculations to assess antiviral activity and compute “percent protection” are delineated in (90).

[4] = test system: primary HIV-1 isolates; conditions: previous assays; included as negative control
From the text: Viral isolates. Primary HIV-1 isolates were obtained from Institutional Review Board-approved Centers for Disease Control and Prevention (CDC) Studies or from the National Institutes of Health Research and Reference Reagent Program and World Health Organization collaborative network. Detailed characteristics of the CDC isolates, including subtype determination based on the envelope region, and co-receptor usage using GHOST cell lines have been described elsewhere. For viruses obtained from the NIH Research and Reference Reagent Program, the reported subtype and co-receptor data were used as supplied. Viral stocks were generated by infecting CD8-depleted normal human peripheral blood mononuclear cells. After filtration through 0.22-μm filters, aliquots of the stocks were stored at −70° C. until used.
Reporter gene-based viral replication assay. JC53-BL cells, an HIV-1 reporter cell line derived from HeLa cells that expresses high levels of CD4 and the HIV co-receptors CXCR4 and CCR5, were a gift of Tranzyme Inc. (Birmingham, Ala.). The JC53-BL cells contain cassettes for luciferase and β-galactosidase, each driven by the HIV-1 LTR. HIV infection (tat production) can be detected either by measuring luciferase activity or by counting blue foci after staining the cells with “X-Gal” (5-Bromo-4-chloro-3-indolyl β-D-galactopyranoside), as described elsewhere in detail. The JC53-BL cells were maintained in Dulbecco's modified Eagle medium supplemented with 10% fetal calf serum. (HyClone, Logan, Utah), 2 mM glutamine (Gibco), 100 units per ml penicillin G and 100 μg/ml streptomycin (GIBCO™, Invitrogen Corp., San Diego, Calif.). Viral titers were determined by adding serial dilutions of the virus stocks, in triplicate, to wells containing 20,000 JC53-BL cells, after supplementing the above medium with 40 μg/ml DEAE (diethylaminoethyl)-dextran. After a 48 hour incubation at 37° C. in 5% CO2, the cells were fixed and stained for β galactosidase, and the blue foci were counted with a light microscope. Multiplicity of infection (MOI) values were taken from the infectious unit data.
In vitro infections were carried out in the presence or absence of θ-defensin peptides. Briefly, JC53-BL cells were harvested from T-150 flasks approximately 18 hours prior to starting the assay with 0.1 mM EDTA in 0.017 M PBS, pH 7.4. The cells were washed and transferred to sterile white 96-well plates (Thermo Labsystems, Franklin, Mass.) at a density of 20,000 cells in 50 μl of medium. […] After this 3-hour preincubation with peptides, viruses were added in media containing 40 μg/ml DEAE-dextran. The final volume was 200 μl per well, and the multiplicity of infection (viruses/cell) ranged from 0.009 to 0.65. After the plates had incubated at 37° C. in 5% CO2 for 48 hours, luciferase activity was measured with the Steady-Glo Luciferase Assay System (Promega, Madison, Wis.), using the manufacturer's lysis protocol. Relative light intensity was measured with a Tecan luminometer running Magellan software (Tecan, Research Triangle Park, N.C.) and reported as relative light units (RLU). Each plate contained three sets of quadruplicate controls: media-only (background), virus-only (peptide-free), and recombinant luciferase. Samples were run in duplicate and the % inhibition was calculated from the mean values using the formula: % Inhibition=1−(average RLU peptide+virus wells/average RLU virus only wells)×100.
Fifty-percent inhibitory concentration values (IC50) were calculated using the predicted exponential growth function in Microsoft Excel, which uses known x-y values to estimate a given x value (in this case concentration of peptide) that would correspond to a given y value (in this case IC50). Statistical comparisons were by paired t-tests, unless otherwise noted.

[5] = test system: HIV-1 strain IIIB; assay: HIV-1 IIIB infection of H9 cells, p24 antigen ELISA; type: cell-based; conditions: H9 cells, IIIB (X4), peptide 10-20 μg/ml
Description: FIG. 1. Circular minidefensins reduce HIV-1 infection of H9 cells. HIV-I strain IIIB (MOI=10^−2) was incubated with 2.5×10^5 H9 cells in the presence or absence of 20 μg/ml RTD-1, RTD-2 or RTD-3. p24 antigen release was monitored by ELISA on days 3, 6, and 9. Assay sensitivity=10 pg/ml.
Immortalized CD4^+ H9 cells, which are permissive for infection with this strain, were maintained in RPMI supplemented with 10% heat-inactivated fetal calf serum (FCS), 10 mM HEPES, 2 mM glutamine, 100 U of penicillin/ml, and 10 μg of streptomycin/ml (R10 media). Cells (2.5×10^5/100 μl) were incubated with virus (multiplicity of infection (MOI)=10^−2) in the presence or absence of 20 μg/ml RTD-1, RTD-2 or RTD-3 for 3 hrs at 37° C./5% CO2. The cells were washed in R10 media, seeded in 48-well tissue culture plates in 1 ml R10 media, and incubated at 37° C./5% CO2 for 9 days. Aliquots of cell supernatant were removed at the specified time points and analyzed by a sensitive ELISA (DuPont NEN) that quantitates p24 antigen of HIV-1. The three circular rhesus minidefensins were similarly active, inhibiting HIV-1 by 100-1000 fold by 9 days post-inoculation (note the logarithmic scale).
as §1
Mature retrocyclin was prepared by a three-step process.

Molecule | inhibition of HIV-1 replication (p24) [1] | inhibition of HIV-1 replication (p24) [2] | protection against HSV-2 [3] | anti-HIV activity [4] | inhibition of HIV-1 replication (p24) [5]
I15Y-Retrocyclin (cyclo(GICRCICGRGICRCYCGR); disulfide (positions not given here); ring closure inferred; not fully specified (bridges)) [RC-103] | considerable ability to protect cells; also recorded: substantial activity | either inactive or only modestly active; also recorded: relatively ineffective | less antiviral than retrocyclin | – | –
R4Y-Retrocyclin [RC-106] | lack of efficacy | either inactive or only modestly active; also recorded: lack of efficacy | – | little or no anti-HIV activity | –
I6Y-Retrocyclin (cyclo(GICRCYCGRGICRCICGR); disulfide (positions not given here); ring closure inferred; not fully specified (bridges)) [RC-102, cyclic …] | considerable ability to protect cells; also recorded: substantial activity | either inactive or only modestly active; also recorded: relatively ineffective | less antiviral than retrocyclin | – | –
I2Y-Retrocyclin (cyclo(GYCRCICGRGICRCICGR); disulfide (positions not given here); ring closure inferred; not fully specified (bridges)) [RC-104, cyclic …] | considerable ability to protect cells; also recorded: substantial activity | relatively ineffective | – | – | –
RTD-2: rhesus circular minidefensin, homodimer of two identical nonapeptide elements (SEQ ID NO:17) (peptide, listed as Macaca mulatta, cyclic homodimer of two nonapeptides; SIGNAL (1)...(20)) MRTFALLTAMLLLVALHAQAEARQARADEAAAQQQPGADDQGMAHSFTRPENAALPLSESARGLRCLCRRGVCQLL | – | – | – | – | protective to a lesser extent than retrocyclin
RTD-3: rhesus circular minidefensin, homodimer of two identical nonapeptide elements (SEQ ID NO:15) (peptide, listed as Macaca mulatta, cyclic homodimer of two nonapeptides; SIGNAL (1)...(20)) MRTFALLTAMLLLVALHAQAEARQARADEAAAQQQPGTDDQGMAHSFTWPENAALPLSESAKGLRCICTRGFCRLL | – | – | – | – | protective to a lesser extent than retrocyclin
